In patent publication US20230094952A1, “Method for Culturing Hematopoietic Stem Cells” (Sumitomo Pharma Co., Ltd., priority 2019, published 2023) one finds KLS-positive rate, Viable cell count and mCherry-positive rate data, which are given here for four compounds.

The experiment concerns mouse long-term hematopoietic stem cells. Put plainly: Reproducibility and concentration dependence test: 1-week culture of sorted Hoxb5-tri-mCherry mouse long-term hematopoietic stem cells, flow cytometry. The class given is cell-based. As to conditions: day 7 of culture, n=2. Summed up:
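Hoxb5-tri-mCherry+ LT-HSCs (Lin−c-Kit+Sca-1+Flk2−CD34−/lo CD150+) were sorted from mouse bone marrow at 10 cells/well into StemSpan SFEM with SCF and TPO. Cells were cultured with compound for 1 week at 37°C, 5% CO2. Flow cytometry then measured KLS and mCherry+ fractions and cell counts.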
A general note: A flow cytometer gives signals particle by particle.

As for `C[C@H]1[C@H](C(N)=O)O[C@@H]2O[C@@]3(C)CC[C@H]4[C@H](C)CC[C@@H]1[C@@]24OO3` [Example 1-16, (3R,5aS,6R,8aS,9R,10R,12R,12aR)-3,6,9-Trimethyldecahydro-12H-3,12-epoxypyrano[4,3-j][1,2]benzodioxepine-10-carboxamide], the KLS-positive rate runs as follows: (Table 4, compound 0.1 μM) 13.3%; (Table 4, compound 0.3 μM) 11.6%; (Table 4, compound 1 μM) 33.4%; (Table 4, compound 3 μM) 9.2%; (Table 4, compound 10 μM) 52.6%. For the same compound, the Viable cell count amounted to 504.5 cell (Table 4, compound 0.1 μM); 388.5 cell (Table 4, compound 0.3 μM); 310.0 cell (Table 4, compound 1 μM); 182.5 cell (Table 4, compound 3 μM); 29.0 cell (Table 4, compound 10 μM). For the same compound, the mCherry-positive rate amounted to 6.8% (Table 4, compound 0.1 μM); 29.2% (Table 4, compound 0.3 μM); 68.2% (Table 4, compound 1 μM); 92.4% (Table 4, compound 3 μM); 99.0% (Table 4, compound 10 μM).
Consider `C[C@H]1[C@H](c2ccco2)O[C@@H]2O[C@@]3(C)CC[C@H]4[C@H](C)CC[C@@H]1[C@@]24OO3` [Example 1-7, (3R,5aS,6R,8aS,9R,10R,12R,12aR)-10-(Furan-2-yl)-3,6,9-trimethyldecahydro-12H-3,12-epoxypyrano[4,3-j][1,2]benzodioxepine], for which the KLS-positive rate came to 26.9% (Table 4, compound 0.1 μM); 19.6% (Table 4, compound 0.3 μM); 36.1% (Table 4, compound 1 μM); 0.0% (Table 4, compound 3 μM); 0.0% (Table 4, compound 10 μM). For the same compound, the Viable cell count (Table 4, compound 0.1 μM) was found to be 225.0 cell; the Viable cell count (Table 4, compound 0.3 μM) is 269.0 cell; the Viable cell count (Table 4, compound 1 μM) is 73.0 cell; the Viable cell count (Table 4, compound 3 μM) is 0.0 cell; the Viable cell count (Table 4, compound 10 μM) worked out at 0.0 cell. Besides, the mCherry-positive rate reads like this: (Table 4, compound 0.1 μM) 42.9%; (Table 4, compound 0.3 μM) 62.2%; (Table 4, compound 1 μM) 96.7%; (Table 4, compound 3 μM) 0.0%; (Table 4, compound 10 μM) 0.0%.
For the compound `COCCO[C@H]1O[C@@H]2O[C@@]3(C)CC[C@H]4[C@H](C)CC[C@@H]([C@H]1C)[C@@]24OO3` [Example 1-23, (3R,5aS,6R,8aS,9R,10S,12R,12aR)-10-(2-methoxyethoxy)-3,6,9-trimethyldecahydro-12H-3,12-epoxypyrano[4,3-j][1,2]benzodioxepine], the KLS-positive rate is, setting by setting: (Table 4, compound 0.1 μM) 12.4%; (Table 4, compound 0.3 μM) 15.4%; (Table 4, compound 1 μM) 5.3%; (Table 4, compound 3 μM) 23.2%; (Table 4, compound 10 μM) 42.3%. Moreover, the Viable cell count is 712.5 cell (Table 4, compound 0.1 μM); 509.0 cell (Table 4, compound 0.3 μM); 729.0 cell (Table 4, compound 1 μM); 252.0 cell (Table 4, compound 3 μM); 63.5 cell (Table 4, compound 10 μM). This compound also showed a mCherry-positive rate (Table 4, compound 0.1 μM) of 17.9%; a mCherry-positive rate (Table 4, compound 0.3 μM) of 46.5%; a mCherry-positive rate (Table 4, compound 1 μM) of 72.7%; a mCherry-positive rate (Table 4, compound 3 μM) of 97.3%; a mCherry-positive rate (Table 4, compound 10 μM) of 100.0%.
With `CO[C@H]1O[C@@H]2O[C@@]3(C)CC[C@H]4[C@H](C)CC[C@@H]([C@H]1C)[C@@]24OO3` [Example 1-30, artemether, reference compound], the KLS-positive rate (Table 3, compound 0.1 μM) turned out to be 50.25%; the KLS-positive rate (Table 3, compound 0.3 μM) came out at 22.05%; the KLS-positive rate (Table 3, compound 1 μM) is listed as 21.4%; the KLS-positive rate (Table 3, compound 3 μM) was found to be 50.3%; the KLS-positive rate (Table 3, compound 10 μM) came to 65.9%; the KLS-positive rate (Table 4, compound 0.1 μM) was 35.3%. The KLS-positive rate reads like this: (Table 4, compound 0.3 μM) 38.4%; (Table 4, compound 1 μM) 40.1%; (Table 4, compound 3 μM) 57.4%; (Table 4, compound 10 μM) 71.4%. In addition, the Viable cell count runs as follows: (Table 3, compound 0.1 μM) 1109 cell; (Table 3, compound 0.3 μM) 2632 cell; (Table 3, compound 1 μM) 1170.5 cell; (Table 3, compound 3 μM) 115 cell; (Table 3, compound 10 μM) 108.5 cell; (Table 4, compound 0.1 μM) 238.0 cell. The Viable cell count is, setting by setting: (Table 4, compound 0.3 μM) 184.0 cell; (Table 4, compound 1 μM) 135.5 cell; (Table 4, compound 3 μM) 44.5 cell; (Table 4, compound 10 μM) 65.0 cell. In addition, the mCherry-positive rate is on record as 67.2% (Table 3, compound 0.1 μM); 36.85% (Table 3, compound 0.3 μM); 57.85% (Table 3, compound 1 μM); 98.05% (Table 3, compound 3 μM); 94.45% (Table 3, compound 10 μM); 71.2% (Table 4, compound 0.1 μM). Further, the mCherry-positive rate is, setting by setting: (Table 4, compound 0.3 μM) 100.0%; (Table 4, compound 1 μM) 99.0%; (Table 4, compound 3 μM) 100.0%; (Table 4, compound 10 μM) 98.2%.
